BindingDB's records for doi:10.1021/acschembio.5b01018 (Stony Brook University, 2016)

Target: T1, Tyrosine-protein kinase ABL1 [229-512] (Homo sapiens, UniProt P00519)
T1 construct: 229-512
T1 sequence (P00519 whole entry): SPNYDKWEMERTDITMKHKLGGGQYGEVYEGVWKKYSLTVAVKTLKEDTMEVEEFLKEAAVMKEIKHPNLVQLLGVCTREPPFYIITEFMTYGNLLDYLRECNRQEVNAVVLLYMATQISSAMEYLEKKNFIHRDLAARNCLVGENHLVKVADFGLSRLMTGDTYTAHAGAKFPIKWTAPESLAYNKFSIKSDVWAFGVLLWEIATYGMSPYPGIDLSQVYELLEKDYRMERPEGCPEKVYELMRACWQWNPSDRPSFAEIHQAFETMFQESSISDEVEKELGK
Test: Kinome-Wide Inhibitor Profiling for Phosphorylated c-Abl
Method: Inhibitor selectivity profiles were obtained through Luceome Biotechnologies (Tuscon, AZ). Each inhibitor was screened at 0.5 μM against phosphorylated c-Abl.

Structure (SMILES)	Kd
Cc1nc(Nc2ncc(C(=O)Nc3cc(NC(=O)c4cccc(C(F)(F)F)c4)ccc3C)s2)cc(N2CCN(CCO)CC2)n1 [DAS-DFGO-II]	2 nM
Cc1nc(Nc2ncc(C(=O)Nc3cccc(NC(=O)c4cccc(C(F)(F)F)c4)c3)s2)cc(N2CCN(CCO)CC2)n1 [DAS-DFGO-I]	1.8 nM
